Results from patent US9938562B2, “Naphthalene derived chromogenic enzyme substrates” (Glycosynth Limited, priority 2013, dated 2018).
Structures can show the parent of a compound that is named as a salt.

Key:
Assay type in all cases: cell-based
E. cloacae = assay: Glucuronide screen, agar plates (CPS ID 3 or Columbia agar)
E. faecalis NCTC 775 = assay: as above; details: E. faecalis NCTC 775, agar
E. faecium NCTC 7171 = assay: as above; details: E. faecium NCTC 7171, agar
[1] = test system: clinical isolates of E. coli; assay: Glucuronide sensitivity screen, agar plates (CPS ID 3 or Columbia agar)
[2] = 100 E. coli strains, agar, 18 h incubation

O=C(O)[C@H]1O[C@@H](Oc2c[nH]c3cc(Cl)ccc23)[C@H](O)[C@@H](O)[C@@H]1O [Rose-β-D-glucuronide CHA salt, 6-chloro-3-indolyl β-D-glucuronide]
81: Positive strains [1, 2]
19: Negative strains [1, 2]
−: Colour (E. cloacae; E. cloacae 260329R, agar) | Colour (E. cloacae; E. cloacae NCTC 11936, agar) | Colour (E. faecalis NCTC 775) | Colour (E. faecium NCTC 7171) | Colour ([1]; E. coli 260313A, agar) | Colour ([1]; E. coli 260316T, agar) | Colour ([1]; E. coli 260333P, agar) | Colour ([1]; E. coli 260364H, agar) | Colour ([1]; E. coli 260390B, agar) | Colour ([1]; E. coli 260400N, agar) | Colour ([1]; E. coli 260406A, agar) | Colour ([1]; E. coli 260416W, agar) | Colour ([1]; E. coli 260471B, agar) | Colour ([1]; E. coli 260478N, agar) | Colour ([1]; E. coli 260483R, agar) | Colour ([1]; E. coli 260495R, agar) | Colour ([1]; E. coli 260505Q, agar) | Colour ([1]; E. coli 260514G, agar) | Colour ([1]; E. coli 260537E, agar) | Colour ([1]; E. coli 260538H, agar) | Colour ([1]; E. coli 260553X, agar) | Colour ([1]; E. coli 260578D, agar) | Colour ([1]; E. coli 2603121P, agar)
Red: Colour ([1]; E. coli 260262P, agar) | Colour ([1]; E. coli 260280Z, agar) | Colour ([1]; E. coli 260310H, agar) | Colour ([1]; E. coli 260327V, agar) | Colour ([1]; E. coli 260330Y, agar) | Colour ([1]; E. coli 260345F, agar) | Colour ([1]; E. coli 260348K, agar) | Colour ([1]; E. coli 260354W, agar) | Colour ([1]; E. coli 260370C, agar) | Colour ([1]; E. coli 260375E, agar) | Colour ([1]; E. coli 260396Z, agar) | Colour ([1]; E. coli 260398Q, agar) | Colour ([1]; E. coli 260399E, agar) | Colour ([1]; E. coli 260401Q, agar) | Colour ([1]; E. coli 260402H, agar) | Colour ([1]; E. coli 260404W, agar) | Colour ([1]; E. coli 260405P, agar) | Colour ([1]; E. coli 260406Y, agar) | Colour ([1]; E. coli 260407F, agar) | Colour ([1]; E. coli 260408C, agar) | Colour ([1]; E. coli 260411Z, agar) | Colour ([1]; E. coli 260412Q, agar) | Colour ([1]; E. coli 260414H, agar) | Colour ([1]; E. coli 260415Y, agar) | Colour ([1]; E. coli 260417P, agar) | Colour ([1]; E. coli 260422Y, agar) | Colour ([1]; E. coli 260424P, agar) | Colour ([1]; E. coli 260425A, agar) | Colour ([1]; E. coli 260426F, agar) | Colour ([1]; E. coli 260428T, agar) | Colour ([1]; E. coli 260431N, agar) | Colour ([1]; E. coli 260432E, agar) | Colour ([1]; E. coli 260433H, agar) | Colour ([1]; E. coli 260434Y, agar) | Colour ([1]; E. coli 260435W, agar) | Colour ([1]; E. coli 260436P, agar) | Colour ([1]; E. coli 260438F, agar) | Colour ([1]; E. coli 260439C, agar) | Colour ([1]; E. coli 260440S, agar) | Colour ([1]; E. coli 260441G, agar) | Colour ([1]; E. coli 260458Y, agar) | Colour ([1]; E. coli 260459W, agar) | Colour ([1]; E. coli 260463D, agar) | Colour ([1]; E. coli 260464G, agar) | Colour ([1]; E. coli 260479Q, agar) | Colour ([1]; E. coli 260480M, agar) | Colour ([1]; E. coli 260481J, agar) | Colour ([1]; E. coli 260485D, agar) | Colour ([1]; E. coli 260486L, agar) | Colour ([1]; E. coli 260492J, agar) | Colour ([1]; E. coli 260494B, agar) | Colour ([1]; E. coli 260497D, agar) | Colour ([1]; E. coli 260502G, agar) | Colour ([1]; E. coli 260503Z, agar) | Colour ([1]; E. coli 260504N, agar) | Colour ([1]; E. coli 260506E, agar) | Colour ([1]; E. coli 260508Y, agar) | Colour ([1]; E. coli 260509W, agar) | Colour ([1]; E. coli 260510R, agar) | Colour ([1]; E. coli 260511X, agar) | Colour ([1]; E. coli 260515Z, agar) | Colour ([1]; E. coli 260521S, agar) | Colour ([1]; E. coli 260522Z, agar) | Colour ([1]; E. coli 260532S, agar) | Colour ([1]; E. coli 260533G, agar) | Colour ([1]; E. coli 260536Q, agar) | Colour ([1]; E. coli 260539Y, agar) | Colour ([1]; E. coli 260541R, agar) | Colour ([1]; E. coli 260545G, agar) | Colour ([1]; E. coli 260547N, agar) | Colour ([1]; E. coli 260548Q, agar) | Colour ([1]; E. coli 260549E, agar) | Colour ([1]; E. coli 260554D, agar) | Colour ([1]; E. coli 260555L, agar) | Colour ([1]; E. coli 260563B, agar) | Colour ([1]; E. coli 260564R, agar)
81%: % Sensitivity [1]
Tr. Red: Colour ([1]; E. coli 260437A, agar)
